# Measured values published in the supplement of paper PMC10307832.
# Legend:
# Test in all cases: relative viability (nuclei count vs DMSO), 5 days (fraction); higher = more cells survive
# NCI-H1666 = system: NCI-H1666
# Outline: (§1)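 Five library-drug doses in √10 steps were combined with a fixed anchor-drug dose, or a single drug was given alone, by pin tool to lung cancer cell lines in 1536-well plates the day after seeding. Nuclei were stained and counted after 5 days. Relative viability is the nuclei count in treated wells over that in vehicle wells, taken as the median of duplicate plates.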
# CAL-12T = system: CAL-12T
# Outline: as §1
# NCI-H1650 = system: NCI-H1650
# Outline: as §1
# HCC-366 = system: HCC-366
# Outline: as §1
# NCI-H838 = system: NCI-H838
# Outline: as §1
# NCI-H2023 = system: NCI-H2023
# Outline: as §1
# COR-L23 = system: COR-L23
# Outline: as §1
# SW 900 = system: SW 900
# Outline: as §1
# LK-2 = system: LK-2
# Outline: as §1
# 201T = system: 201T
# Outline: as §1
# EKVX = system: EKVX
# Outline: as §1
# NCI-H3122 = system: NCI-H3122
# Outline: as §1
# COR-L 105 = system: COR-L 105
# Outline: as §1
# NCI-H2009 = system: NCI-H2009
# Outline: as §1
# NCI-H441 = system: NCI-H441
# Outline: as §1
# LU99A = system: LU99A
# Outline: as §1
# NCI-H1437 = system: NCI-H1437
# Outline: as §1
# PC-14 = system: PC-14
# Outline: as §1
# ABC-1 = system: ABC-1
# Outline: as §1
# NCI-H661 = system: NCI-H661
# Outline: as §1
# HARA = system: HARA
# Outline: as §1
# NCI-H2170 = system: NCI-H2170
# Outline: as §1
# BEN = system: BEN
# Outline: as §1
# NCI-H727 = system: NCI-H727
# Outline: as §1
smiles,measurement,setting,value
Clc1ccc(Nc2nnc(Cc3ccncc3)c3ccccc23)cc1 [Vatalanib] + COc1cc2c(Oc3ccc(NC(=O)C4(C(=O)Nc5ccc(F)cc5)CC4)cc3F)ccnc2cc1OCCCN1CCOCC1 [Foretinib] (partner 0.25 µM),relative viability,NCI-H1666; first compound 0.04 µM,1
same,relative viability,NCI-H1666; first compound 0.1265 µM,1.02
same,relative viability,NCI-H1666; first compound 0.4 µM,0.997
same,relative viability,NCI-H1666; first compound 1.265 µM,0.962
same,relative viability,NCI-H1666; first compound 4 µM,0.925
same,relative viability,CAL-12T; first compound 0.04 µM,1.07
same,relative viability,CAL-12T; first compound 0.1265 µM,1.16
same,relative viability,CAL-12T; first compound 0.4 µM,1.05
same,relative viability,CAL-12T; first compound 1.265 µM,1.04
same,relative viability,CAL-12T; first compound 4 µM,1.05
same,relative viability,NCI-H1650; first compound 0.04 µM,1.22
same,relative viability,NCI-H1650; first compound 0.1265 µM,1.05
same,relative viability,NCI-H1650; first compound 0.4 µM,0.89
same,relative viability,NCI-H1650; first compound 1.265 µM,1
same,relative viability,NCI-H1650; first compound 4 µM,1.27
same,relative viability,HCC-366; first compound 0.04 µM,0.85
same,relative viability,HCC-366; first compound 0.1265 µM,0.8
same,relative viability,HCC-366; first compound 0.4 µM,0.895
same,relative viability,HCC-366; first compound 1.265 µM,0.885
same,relative viability,HCC-366; first compound 4 µM,0.949
same,relative viability,NCI-H838; first compound 0.04 µM,1.11
same,relative viability,NCI-H838; first compound 0.1265 µM,1.03
same,relative viability,NCI-H838; first compound 0.4 µM,1.13
same,relative viability,NCI-H838; first compound 1.265 µM,1.04
same,relative viability,NCI-H838; first compound 4 µM,1.01
same,relative viability,NCI-H2023; first compound 0.04 µM,0.881
same,relative viability,NCI-H2023; first compound 0.1265 µM,0.974
same,relative viability,NCI-H2023; first compound 0.4 µM,1.04
same,relative viability,NCI-H2023; first compound 1.265 µM,0.753
same,relative viability,NCI-H2023; first compound 4 µM,1.04
same,relative viability,COR-L23; first compound 0.04 µM,1.08
same,relative viability,COR-L23; first compound 0.1265 µM,0.827
same,relative viability,COR-L23; first compound 0.4 µM,1.15
same,relative viability,COR-L23; first compound 1.265 µM,1.04
same,relative viability,COR-L23; first compound 4 µM,0.92
same,relative viability,SW 900; first compound 0.1265 µM,0.761
same,relative viability,SW 900; first compound 0.4 µM,0.942
same,relative viability,SW 900; first compound 1.265 µM,0.922
same,relative viability,SW 900; first compound 4 µM,0.918
same,relative viability,LK-2; first compound 0.04 µM,1.14
same,relative viability,LK-2; first compound 0.1265 µM,1.19
same,relative viability,LK-2; first compound 0.4 µM,1.29
same,relative viability,LK-2; first compound 1.265 µM,1.6
same,relative viability,LK-2; first compound 4 µM,1.5
same,relative viability,201T; first compound 0.04 µM,1.17
same,relative viability,201T; first compound 0.1265 µM,0.976
same,relative viability,201T; first compound 0.4 µM,1.16
same,relative viability,201T; first compound 1.265 µM,1.09
same,relative viability,201T; first compound 4 µM,0.984
same,relative viability,EKVX; first compound 0.04 µM,0.836
same,relative viability,EKVX; first compound 0.1265 µM,0.838
same,relative viability,EKVX; first compound 0.4 µM,0.551
same,relative viability,EKVX; first compound 4 µM,0.727
same,relative viability,NCI-H3122; first compound 0.04 µM,0.997
same,relative viability,NCI-H3122; first compound 0.1265 µM,0.978
same,relative viability,NCI-H3122; first compound 0.4 µM,0.939
same,relative viability,NCI-H3122; first compound 1.265 µM,0.897
same,relative viability,NCI-H3122; first compound 4 µM,0.954
same,relative viability,COR-L 105; first compound 0.04 µM,0.885
same,relative viability,COR-L 105; first compound 0.1265 µM,1.23
same,relative viability,COR-L 105; first compound 0.4 µM,1.24
same,relative viability,COR-L 105; first compound 1.265 µM,0.785
same,relative viability,COR-L 105; first compound 4 µM,1.12
same,relative viability,NCI-H2009; first compound 0.04 µM,1.22
same,relative viability,NCI-H2009; first compound 0.1265 µM,1.14
same,relative viability,NCI-H2009; first compound 0.4 µM,1.24
same,relative viability,NCI-H2009; first compound 1.265 µM,1.2
same,relative viability,NCI-H2009; first compound 4 µM,1.26
same,relative viability,NCI-H441; first compound 0.04 µM,0.994
same,relative viability,NCI-H441; first compound 0.1265 µM,0.977
same,relative viability,NCI-H441; first compound 0.4 µM,1.15
same,relative viability,NCI-H441; first compound 1.265 µM,0.881
same,relative viability,NCI-H441; first compound 4 µM,0.893
same,relative viability,LU99A; first compound 0.04 µM,0.809
same,relative viability,LU99A; first compound 0.1265 µM,0.842
same,relative viability,LU99A; first compound 0.4 µM,0.917
same,relative viability,LU99A; first compound 1.265 µM,0.75
same,relative viability,LU99A; first compound 4 µM,0.848
same,relative viability,NCI-H1437; first compound 0.04 µM,1.25
same,relative viability,NCI-H1437; first compound 0.1265 µM,1.27
same,relative viability,NCI-H1437; first compound 0.4 µM,1.4
same,relative viability,NCI-H1437; first compound 1.265 µM,1.21
same,relative viability,NCI-H1437; first compound 4 µM,1.26
same,relative viability,PC-14; first compound 0.04 µM,0.981
same,relative viability,PC-14; first compound 0.1265 µM,0.855
same,relative viability,PC-14; first compound 0.4 µM,0.85
same,relative viability,PC-14; first compound 1.265 µM,0.895
same,relative viability,PC-14; first compound 4 µM,0.932
same,relative viability,ABC-1; first compound 0.04 µM,1.32
same,relative viability,ABC-1; first compound 0.1265 µM,1.11
same,relative viability,ABC-1; first compound 1.265 µM,1.18
same,relative viability,ABC-1; first compound 4 µM,0.989
same,relative viability,NCI-H661; first compound 0.04 µM,1
same,relative viability,NCI-H661; first compound 0.1265 µM,1.04
same,relative viability,NCI-H661; first compound 0.4 µM,1.07
same,relative viability,NCI-H661; first compound 1.265 µM,0.975
same,relative viability,NCI-H661; first compound 4 µM,0.989
same,relative viability,HARA; first compound 0.04 µM,0.853
same,relative viability,HARA; first compound 0.1265 µM,0.757
same,relative viability,HARA; first compound 0.4 µM,0.807
same,relative viability,HARA; first compound 1.265 µM,0.92
same,relative viability,HARA; first compound 4 µM,0.852
same,relative viability,NCI-H2170; first compound 0.04 µM,1.03
same,relative viability,NCI-H2170; first compound 0.1265 µM,1.09
same,relative viability,NCI-H2170; first compound 0.4 µM,1.04
same,relative viability,NCI-H2170; first compound 1.265 µM,0.978
same,relative viability,NCI-H2170; first compound 4 µM,1.02
same,relative viability,BEN; first compound 0.04 µM,0.705
same,relative viability,BEN; first compound 0.1265 µM,0.526
same,relative viability,BEN; first compound 0.4 µM,0.845
same,relative viability,BEN; first compound 1.265 µM,0.511
same,relative viability,BEN; first compound 4 µM,0.696
same,relative viability,NCI-H727; first compound 0.04 µM,0.901
same,relative viability,NCI-H727; first compound 0.1265 µM,0.724
same,relative viability,NCI-H727; first compound 0.4 µM,0.703
same,relative viability,NCI-H727; first compound 1.265 µM,0.572
same,relative viability,NCI-H727; first compound 4 µM,0.925
